One block for each molecule: values may come before it. *: point of attachment. AMC = Cc1cc(=O)oc2cc(N*)ccc12
Legend:
SIRT5 = target: T1, SIRT5 (Homo sapiens, UniProt Q9NXA8); experiment: Inhibition of SIRT5 desuccinylation of Ac-Lys(Succ.)-AMC; assay type: biochemical; design: purchased Enzo Life Sciences BML-SE555; settings: three parameter Hill-Slope model, bottom fixed at 0
T1 sequence (Q9NXA8 37-310): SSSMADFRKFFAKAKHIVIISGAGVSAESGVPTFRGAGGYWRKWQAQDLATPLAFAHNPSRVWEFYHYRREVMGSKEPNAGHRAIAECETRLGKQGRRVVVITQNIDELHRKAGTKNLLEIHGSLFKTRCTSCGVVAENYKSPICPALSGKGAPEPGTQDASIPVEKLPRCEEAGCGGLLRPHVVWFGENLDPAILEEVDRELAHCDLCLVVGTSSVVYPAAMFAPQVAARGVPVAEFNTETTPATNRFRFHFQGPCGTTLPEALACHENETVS
Description: Signal development (trypsin treatment) and fluorescence readings were done as described, as were the conversion of fluorescence increases to rates in units of pmol/min/μg (FIG. 5). Data points represent the mean of three determinations and the error bars are the standard deviations from those means. The dose-response curve was derived from a least-squares fit to a three parameter Hill-Slope model (bottom fixed at 0 pmol/min/μg), y=top/(1+(x/IC50)^slope).
Data points represent the mean of three determinations and the error bars are the standard deviations from those means. The dose-response curve was derived from a least-squares fit to a three parameter Hill-Slope model (bottom fixed at 0 pmol/min/μg), y=top/(1+(x/IC50)^slope).
(§1) Assays were performed at 37° C., according to the manufacturer's instructions for the “SIRT1 Fluorometric Drug Discovery Kit” from Enzo Life Sciences (ELS) (Cat. # BML-AK555), with exceptions described as follows. Where indicated in figures and text, SIRT1 enzyme was replaced with another enzyme or extract and the “Fluor de Lys-SIRT1 Substrate” (Ac-Arg-His-Lys-Lys(Ac)-AMC; ELS Cat. # BML-KI-177) was replaced with another acetylated, succinylated or trifluoroacetylated substrate.

HeLa cell extracts = experiment: HeLa cell extract Ac-Lys(ε-succinyl)-AMC desuccinylation activity; assay type: biochemical, human; settings: 50 μM Ac-Lys(Succ.)-AMC, +NAD^+ 500 μM; TSA 1 μM, suramin 200 μM
Procedure: (§2) Enzyme and extract catalog products obtained from ENZO Life Sciences included: HDAC1 (Cat. # BML-SE456), HDAC2 (Cat. # BML-SE500), HDAC3 (Cat. # BML-SE507), HDAC3/NCOR1 Complex (Cat. # BML-SE515), HDAC6 (Cat. # BML-SE508), HDAC8 (Cat. # BML-SE145), HDAC10 (Cat. # BML-SE559), HDAC11 (Cat. # BML-SE560), SIRT1 (Cat. # BML-SE239), SIRT2 (Cat. # BML-SE251), SIRT3 (Cat. # BML-SE270), SIRT5 (Cat. # BML-SE555), HeLa Nuclear Extract (Cat. # BML-KI140), Trypsin (“Fluor de Lys Developer”, 80 mg/ml bovine trypsin in 1 mM HCl, Cat. # BML-KI105 or “Fluor de Lys Developer II”, 80 mg/ml bovine trypsin in 1 mM HCl, Cat. # BML-KI176). […] Enzymes obtained from BPS Bioscience, San Diego, Calif. included: human recombinants SIRT4 (Cat. #50015), SIRT6 (Cat. #50017), SIRT7 (Cat. #50018). HeLa whole cell extract was obtained from HeLa S3 cells (American Type Culture Collection) grown in a medium of MEM/10% fetal bovine serum (FBS) as follows: 1) 9×10^6 cells were suspended by trypsinization, followed by a phosphate buffered saline (PBS) rinse and addition of MEM/10% FBS (1.5 mL) to eliminate trypsin before transfer to a 15 mL conical tube; 2) cells were sedimented by a low speed centrifugation, gently resuspended in PBS and sedimented again and supernatant removed; 3) lysis was induced by resuspension in 0.8 mL 50 mM Tris/HCl, pH 8.0 with the non-denaturing detergent NP-40 (0.5%), placement on ice and brief vortexing every 5 min. for 30 min.; 4) 100 μl of a concentrated salt solution in the same buffer was added in order to bring the final buffer composition to 50 mM Tris/C1, pH 8.0, 137 mM NaCl, 2.7 mM KCl, 1 mM MgCl2, 0.5% NP-40; 5) particulate matter was cleared by centrifugation and the cleared lysate supernatant transferred to a 1.5 mL Eppendorf tube and stored on ice until use in activity assays.
Assays were performed at 37° C., according to the manufacturer's instructions for the “SIRT1 Fluorometric Drug Discovery Kit” from Enzo Life Sciences (ELS) (Cat. # BML-AK555), with exceptions described as follows. […]

SIRT2 [1] = target: T2, SIRT2 (Homo sapiens, UniProt Q8IXJ6); settings: varied Lysyl, cited from earlier work
T2 sequence (Q8IXJ6 1-389): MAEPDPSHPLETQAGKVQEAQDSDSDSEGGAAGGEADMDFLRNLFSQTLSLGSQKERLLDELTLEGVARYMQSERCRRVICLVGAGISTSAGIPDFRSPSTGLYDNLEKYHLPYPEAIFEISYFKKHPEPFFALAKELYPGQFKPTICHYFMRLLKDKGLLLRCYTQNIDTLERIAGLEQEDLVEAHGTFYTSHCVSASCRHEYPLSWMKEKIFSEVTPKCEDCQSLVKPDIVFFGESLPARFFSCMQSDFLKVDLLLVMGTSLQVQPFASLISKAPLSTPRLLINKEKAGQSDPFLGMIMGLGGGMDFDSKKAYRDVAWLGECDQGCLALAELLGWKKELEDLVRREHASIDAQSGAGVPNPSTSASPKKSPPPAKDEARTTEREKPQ

HDAC9 = target: T3, HDAC9 (Homo sapiens, UniProt Q9UKV0); experiment: HDAC activity with fluorogenic lysyl substrates; assay type: biochemical; settings: 50 μM substrate
T3 construct: made in house; host or cells: E. coli
T3 sequence (Q9UKV0 644-1066 isoform Q9UKV0-5): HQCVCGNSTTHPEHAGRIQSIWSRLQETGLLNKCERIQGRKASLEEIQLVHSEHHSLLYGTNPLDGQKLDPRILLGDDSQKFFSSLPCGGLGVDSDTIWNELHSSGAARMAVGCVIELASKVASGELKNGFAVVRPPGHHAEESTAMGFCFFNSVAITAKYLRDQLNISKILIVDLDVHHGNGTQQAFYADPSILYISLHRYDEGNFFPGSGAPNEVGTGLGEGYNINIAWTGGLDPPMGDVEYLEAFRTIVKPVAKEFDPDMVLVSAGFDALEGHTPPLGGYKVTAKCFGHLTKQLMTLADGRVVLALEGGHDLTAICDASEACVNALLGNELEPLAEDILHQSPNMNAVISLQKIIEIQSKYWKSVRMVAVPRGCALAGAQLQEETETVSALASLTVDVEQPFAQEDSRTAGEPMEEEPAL
Procedure: (§3) The Ac-Lys(Succ.)-AMC substrate was tested for activity with recombinant preparations of human HDACs 1-11, SIRTs 1-4, 6 and 7, a complex of HDAC3 with a fragment of the activating protein NCOR1 and with HeLa nuclear extract, a rich source of active HDACs in their native multiprotein complexes.
as §2, §1

HDAC5 = target: T4, HDAC5 (Homo sapiens, UniProt Q9UQL6); experiment: HDAC activity with fluorogenic lysyl substrates; assay type: biochemical; settings: 50 μM substrate
T4 construct: made in house; host or cells: E. coli
T4 sequence (Q9UQL6 656-1122): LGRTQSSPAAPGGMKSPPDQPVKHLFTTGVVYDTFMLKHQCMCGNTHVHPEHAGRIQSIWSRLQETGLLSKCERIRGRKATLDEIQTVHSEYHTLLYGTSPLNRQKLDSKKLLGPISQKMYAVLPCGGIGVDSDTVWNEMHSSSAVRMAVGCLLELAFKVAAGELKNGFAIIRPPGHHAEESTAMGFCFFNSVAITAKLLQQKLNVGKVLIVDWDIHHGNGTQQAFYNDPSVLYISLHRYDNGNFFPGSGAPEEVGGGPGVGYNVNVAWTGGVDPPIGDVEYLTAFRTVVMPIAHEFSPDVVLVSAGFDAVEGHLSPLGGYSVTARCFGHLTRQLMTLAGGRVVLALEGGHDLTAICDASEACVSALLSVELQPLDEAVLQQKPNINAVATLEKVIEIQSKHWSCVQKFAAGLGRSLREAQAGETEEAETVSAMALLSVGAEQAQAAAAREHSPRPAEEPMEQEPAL
Procedure: as §3, §2, §1

HDAC7 = target: T5, HDAC7 (Homo sapiens, UniProt Q8WUI4); experiment: HDAC activity with fluorogenic lysyl substrates; assay type: biochemical; settings: 50 μM substrate
T5 construct: made in house; host or cells: E. coli
T5 sequence (Q8WUI4 483-903): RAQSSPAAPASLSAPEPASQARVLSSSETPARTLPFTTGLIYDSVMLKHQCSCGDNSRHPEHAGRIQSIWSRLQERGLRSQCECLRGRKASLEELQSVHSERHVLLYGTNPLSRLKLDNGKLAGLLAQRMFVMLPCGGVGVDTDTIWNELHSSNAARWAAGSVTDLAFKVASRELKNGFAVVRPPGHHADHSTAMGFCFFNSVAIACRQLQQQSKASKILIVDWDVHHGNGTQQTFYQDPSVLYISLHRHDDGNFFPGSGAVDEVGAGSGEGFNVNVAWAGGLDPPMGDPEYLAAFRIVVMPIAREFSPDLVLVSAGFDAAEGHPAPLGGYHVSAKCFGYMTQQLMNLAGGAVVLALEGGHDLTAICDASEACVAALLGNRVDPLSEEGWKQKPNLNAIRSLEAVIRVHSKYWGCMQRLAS
Procedure: as §3, §2, §1

HDAC4 = experiment: HDAC activity with fluorogenic lysyl substrates; assay type: biochemical, human; settings: 50 μM substrate
HDAC4, sequence (P56524 626-1084 limits assumed): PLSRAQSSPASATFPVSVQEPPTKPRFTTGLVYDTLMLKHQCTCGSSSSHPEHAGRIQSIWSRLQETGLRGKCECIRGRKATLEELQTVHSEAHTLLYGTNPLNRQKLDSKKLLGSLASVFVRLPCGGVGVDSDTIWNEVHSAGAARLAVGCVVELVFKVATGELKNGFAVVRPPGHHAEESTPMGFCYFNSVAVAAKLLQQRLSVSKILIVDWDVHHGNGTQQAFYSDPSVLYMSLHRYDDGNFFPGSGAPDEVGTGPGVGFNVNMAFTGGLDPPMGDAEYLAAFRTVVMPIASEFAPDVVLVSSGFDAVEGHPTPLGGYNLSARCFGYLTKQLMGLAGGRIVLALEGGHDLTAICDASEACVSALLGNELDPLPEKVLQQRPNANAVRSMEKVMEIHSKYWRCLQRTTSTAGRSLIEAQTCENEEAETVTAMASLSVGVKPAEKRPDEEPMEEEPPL
Procedure: as §3
Enzyme and extract catalog products obtained from ENZO Life Sciences included: HDAC1 (Cat. # BML-SE456), HDAC2 (Cat. # BML-SE500), HDAC3 (Cat. # BML-SE507), HDAC3/NCOR1 Complex (Cat. # BML-SE515), HDAC6 (Cat. # BML-SE508), HDAC8 (Cat. # BML-SE145), HDAC10 (Cat. # BML-SE559), HDAC11 (Cat. # BML-SE560), SIRT1 (Cat. # BML-SE239), SIRT2 (Cat. # BML-SE251), SIRT3 (Cat. # BML-SE270), SIRT5 (Cat. # BML-SE555), HeLa Nuclear Extract (Cat. # BML-KI140), Trypsin (“Fluor de Lys Developer”, 80 mg/ml bovine trypsin in 1 mM HCl, Cat. # BML-KI105 or “Fluor de Lys Developer II”, 80 mg/ml bovine trypsin in 1 mM HCl, Cat. # BML-KI176). […] Enzymes obtained from BPS Bioscience, San Diego, Calif. included: human recombinants SIRT4 (Cat. #50015), SIRT6 (Cat. #50017), SIRT7 (Cat. #50018). […]

SIRT3 = target: T6, SIRT3 (Homo sapiens, UniProt Q9NTG7); experiment: Sirtuin activity with fluorogenic lysyl substrates; assay type: biochemical; settings: 50 μM substrate, 500 μM NAD^+
T6 construct: purchased ENZO Life Sciences BML-SE270
T6 sequence (Q9NTG7 1-399): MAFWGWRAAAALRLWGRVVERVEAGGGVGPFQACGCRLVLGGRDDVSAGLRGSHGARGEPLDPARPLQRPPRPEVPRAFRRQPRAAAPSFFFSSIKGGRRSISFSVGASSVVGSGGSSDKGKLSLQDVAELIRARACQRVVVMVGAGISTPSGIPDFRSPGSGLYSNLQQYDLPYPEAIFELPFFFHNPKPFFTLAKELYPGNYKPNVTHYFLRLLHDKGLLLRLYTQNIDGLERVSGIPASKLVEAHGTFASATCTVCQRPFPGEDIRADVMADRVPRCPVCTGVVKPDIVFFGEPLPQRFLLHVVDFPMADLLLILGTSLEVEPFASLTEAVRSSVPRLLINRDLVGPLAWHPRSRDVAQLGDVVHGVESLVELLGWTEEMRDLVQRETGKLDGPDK
Procedure: as §3, §2, §1

SIRT2 [2] = target: T2, SIRT2; experiment: Sirtuin activity with fluorogenic lysyl substrates; assay type: biochemical; settings: 50 μM substrate, 500 μM NAD^+
Procedure: as §3, §2, §1

HeLa cells = experiment: Intact HeLa cell desuccinylation/deacetylation assay; assay type: cell-based, human; settings: 200 μM Ac-Lys(Ac.)-AMC, four hours, TSA 1 μM
Procedure: HeLa cells were cultured to 95% confluence in the wells of ½-volume 96-well plates. […] After the indicated time, cells were lysed with detergent and trypsin added to release AMC from desuccinylated or deacetylated substrate and then fluorescence read (Ex.360 nm/Em. 460 nm). For “0 hr.” samples, substrate, inhibitors, lysis buffer and trypsin were added simultaneously. Bars represent the mean of three determinations and the error bars the Standard Deviation from that mean. Statistically significant differences between the fluorescences of “4 hr.” and “0 hr.” samples (Student's t-test) are indicated by asterisks as follows: *,p<0.02; **, p<0.002.
An assay employing Ac-Lys(Ac.)-AMC to measure the HDAC and sirtuin deacetylase activity of intact cultured cells has been described (Howitz, K. T. et al. Nature 425, 191-196 (2003); Product Manual of Enzo Life Sciences Cat. # BML-AK-503, “HDAC Fluorimetric Cellular Activity Assay Kit”, Appendix F). Ac-Lys(Ac)-AMC is added to the culture medium, enters the cells and is deacetylated by HDACs and sirtuins in their native intracellular context. Measurement of the amount of Ac-Lys-AMC produced by intracellular deacetylation is then accomplished by detergent lysis of the cells and release of the AMC fluorophore by trypsin. We therefore investigated whether Ac-Lys(Succ.)-AMC could be used to measure intracellular desuccinylation activity, in a similar fashion, with cultured HeLa cells. […] These latter, deacetylation results are consistent with previous observations made with this assay system (see Howitz, K. T. et al. Nature 425, 191-196 (2003) and Appendix F).
Assays (FIG. 10) were performed according to the manufacturer's instructions for the ““HDAC Fluorometric Cellular Activity Assay Kit” (ELS Cat. # BML-AK503), with exceptions described as follows. Where indicated the “Fluor de Lys Substrate” (Ac-Lys(Ac.)-AMC; ELS Cat. # BML-KI104) was replaced with Ac-Lys(Succ.)-AMC (1).

Molecule: Cc1ccc(C(=O)Nc2ccc(S(=O)(=O)O)c3cc(S(=O)(=O)O)cc(S(=O)(=O)O)c23)cc1NC(=O)c1cccc(NC(=O)Nc2cccc(C(=O)Nc3cc(C(=O)Nc4ccc(S(=O)(=O)O)c5cc(S(=O)(=O)O)cc(S(=O)(=O)O)c45)ccc3C)c2)c1 [suramin]
slope (fitted parameter of dose-response curve) (SIRT5): 2.37 | top (fitted parameter of dose-response curve) (SIRT5): 127 pmol/min/µg | Inhibition of the total 2 hr. fluorescence increase (HeLa cell extracts): ~50%

Molecule: Hist. H3 1-20, K9Ac: unlabeled peptide, histone H3 residues 1-20 acetylated on lysine-9
Km (SIRT2 [1]; Borra et al., 2004, read-out: Km (Lysyl substrate)): 24 µM | kcat (SIRT2 [1]; Borra et al., 2004): 0.24 s⁻¹

Activity (pmol/min/μg) (HDAC9): Ac-LGK(TFAc)-AMC/3330 pmol/min/μg | Activity (pmol/min/μg) (HDAC5): Ac-LGK(TFAc)-AMC/9960 pmol/min/μg | Activity (pmol/min/μg) (HDAC7): Ac-LGK(TFAc)-AMC/1670 pmol/min/μg
Molecule: Ac-Leu-Gly-Lys(TFAc)-AMC [Ac-LGK(TFAc)-AMC, reference compound]
Activity (pmol/min/μg) (HDAC4): Ac-LGK(TFAc)-AMC/1390 pmol/min/μg

Activity (pmol/min/μg) (SIRT3): Ac-QPKK(Ac)-AMC/10.8 pmol/min/μg | Activity (pmol/min/μg) (SIRT2 [2]): Ac-QPKK(Ac)-AMC/18.6 pmol/min/μg
Molecule: Ac-Gln-Pro-Lys-Lys(Ac)-AMC (Ac-QPKK(Ac)-{AMC}; SMILES CC(=O)NCCCC[C@H](NC(=O)[C@H](CCCCN)NC(=O)[C@@H]1CCCN1C(=O)[C@H](CCC(N)=O)NC(C)=O)C(=O)Nc1ccc2c(C)cc(=O)oc2c1) [Ac-QPKK(Ac)-AMC, reference compound]

Molecule: CC(/C=C/C(=O)NO)=C\[C@@H](C)C(=O)c1ccc(N(C)C)cc1 [trichostatin A]
Inhibition of the total 2 hr. fluorescence increase (HeLa cell extracts): ~50% | Fraction of deacetylation sensitive to inhibitor (HeLa cells): > 90%

Source: US10920265B2, “Compounds and methods for detection of enzymes that remove methyl succinyl groups from epsilon-amino lysine moieties” (Enzo Life Sciences, Inc., priority 2011, dated 2021)
